Test results: US8003645B2, “Preventives or remedies for Alzheimer's disease, or amyloid protein fibril-formation inhibitors, which include a nitrogen-containing heteroaryl compound” (BTG International Ltd., priority 2001, dated 2011)
Where two headings read alike, the source gives them in different places.

Legend:
HeLa cells = assay: Action in inhibiting the lowering of MTT reduction capacity by Aβ1-40; assay type: cell-based
Experimental: The HeLa cells employed were purchased from the Dainippon Pharmaceutical Co.
The HeLa cells were seeded by suspension in MEM (Minimum essential medium; produced by the Sigma Chemical Co.) containing 10% inactivated FBS (foetal bovine serum) such that there were 1,000 per well in a 96-well microplate, and then culturing was carried out overnight in an incubator at 37° C. in the presence of 5% CO2.
The test compound was dissolved in dimethyl sulphoxide (DMSO) and diluted with the MEM medium so that the final concentration of DMSO was no more than 0.1 wt %, and added to the cells seeded the previous day. […] Overnight culturing was carried out using an incubator at 37° C. in the presence of 5% CO2, with 100 μL/well of MEM medium containing 5% deactivated FBS.
Now, prior to use, the Aβ1-40 had been dissolved in buffer and left overnight so that the amyloid coagulated.
In order to determine the percentage inhibition of the test compound, cells alone, cells where Aβ1-40 had been added, and cells where only the test compound had been added, were also incubated overnight under the same conditions.
The following day, there was added 10 μL/well of MTT [3-(4,5-dimethylthiazol-2-yl)-2,5-diphenyltetrazolium bromide: produced by Wako Pure Chemical Industries] prepared at a concentration of 5 mg/mL with phosphate buffered saline (PBS), and incubation carried out for 2 hours at 37° C. in the presence of 5% CO2. The medium was then eliminated and the formazan dye produced measured […] (A570 nm-A650 nm) using a Microplate Reader (produced by the Molecular Devices Co.), by dissolving with the addition of 100 μL per well of isopropanol. In this way, the change in the MTT reduction capacity of the HeLa cells was measured.
The percentage inhibition (%) by the test compound was determined from the following formula. inhibition (%) [[…]/(a−c)]×100 where • a=MTT reduction capacity when untreated • b=MTT reduction capacity when Aβ1-40 and the test compound are added • c=MTT reduction capacity when only Aβ1-40 is added

[1] = test system: acute sections from the hippocampus; assay: Suppression of Aβ1-42-induced long-term potentiation impairment (fEPSP slope) in acute hippocampal sections; assay type: cell-based, Wistar rats; settings: for effect of compound on its own on LTP (result in words): compound alone; for impairment of the LTP due to Aβ1-42 (result in words): pretreating 5 hours with Aβ1-42 together with the compound
Experimental: The method for testing the suppression of the impairment of long-term potentiation was based on that described in J. Neurosci. Vol. 20, 2003-10 (2000). That is to say, acute^i sections of thickness 400 μm were prepared from the hippocampus of the brains of 3-4 week old male Wistar rats. These acute sections were immersed in artificial cerebrospinal fluid in which β-amyloid protein (Aβ1-42: produced by the Sigma Chemical Co.) and compound from Production Examples 1 or 12 had been dissolved, and pretreatment carried out for 5 hours.
In the measurement using the compound from Production Example 1, the concentration of the Aβ1-42 in the artificial cerebrospinal fluid was 500 nM and the concentration of the compound from Production Example 1 was 1 μg/mL. In the measurement using the compound from Production Example 12, the concentration of the Aβ1-42 in the artificial cerebrospinal fluid was 1 μM and the concentration of the compound from Production Example 12 was 3 μg/mL. Now, the Aβ1-42 was used after coagulation of the amyloid by leaving overnight.
100 pulses of high frequency stimulation at 100 Hz were applied to the pretreated acute sections, and the field excitatory postsynaptic potential: fEPSP) measured by an extracellular recording method.
The fEPSP was measured at 30 second intervals following application of the high frequency stimulation and the fEPSP slope (units [%]) measured. The average values of the slope over 0-20 minutes, 20-40 minutes and 40-60 minutes were determined. This test was repeated five times over. In the table, the figures are the average values ±standard deviation for the five averages obtained in the five tests. […] “Aβ” denotes the Aβ1-42.
As controls, measurements were made of the fEPSP [mV] under the same conditions for acute sections pretreated with the artificial cerebrospinal fluid alone, acute sections pretreated with the artificial cerebrospinal fluid in which Aβ1-42 had been dissolved, and acute sections pretreated with artificial cerebrospinal fluid in which only the compound from Production Example 1 or 12 had been dissolved, and then the average value of the fEPSP slope [%] obtained.

Aβ1-42 = Aβ1-42 (Homo sapiens, UniProt P05067); assay: Aβ fibril-formation inhibiting action, thioflavin binding assay; assay type: biochemical; settings: for activity at 100 µg/mL: Aβ1-42 25 μM + compound 100 μg/mL, incubation 2 days at 37° C., Aβ1-42 alone taken as 100, read-out: fibril-formation inhibiting action (fluorescent intensity %); for Aβ fibril-formation (result in words): compound added prior to fibril formation, thioflavin fluorescence
Aβ1-42, sequence (P05067 672-713): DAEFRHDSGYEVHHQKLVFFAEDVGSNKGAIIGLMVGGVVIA
Experimental: (§1) The Aβ fibril-formation inhibiting action and fibrillar Aβ breakdown action were evaluated using the thioflavin binding assay method. The details of the test method are based on the method described in J. Biol. Chem. Vol. 274, 25945-25952 (1999).
In the measurement of the inhibition of Aβ fibril-formation, the concentration of the Aβ1-42 was 25 μM and the concentration of the compound synthesized in Production Example 4 or Production Example 12 was 100 μg/mL in each case. The measurement of the Aβ fibril-formation inhibiting action was carried out following incubation for 2 days at 37° C. of the Aβ1-42 alone and of the Aβ1-42 to which the compound synthesized in Production Example 4 or Production Example 12 had been added.
(§2) The measurements of the Aβ fibril-formation inhibiting action and of the fibrillar Aβ breakdown action were carried out by placing a 100 μL sample obtained by pretreatment as described above, plus 800 μL of distilled water, 1 mL of glycine (100 mM) and 50 μL of thioflavin (100 μM) in a cuvette, and measuring the fluorescence at an excitation wavelength of 435 nm and a fluorescence wavelength of 490 nm.
(§3) The figures in the table show the calculated percentages taking the fluorescent intensity obtained when the fluorescence of the sample obtained by incubating Aβ1-42 (25 μM) alone by the above method, and measured at an excitation wavelength of 435 nm and a fluorescence wavelength of 490 nm, was taken as 100. The figures are in the form of the average value ±standard deviation, for the three to nine averages obtained in three to nine tests. […] “Aβ” is for the Aβ1-42.

fibrillar Aβ1-42 = fibrillar Aβ1-42 (Homo sapiens, UniProt P05067); assay: Fibrillar Aβ breakdown action, thioflavin binding assay; assay type: biochemical; settings: for fibrillar breakdown action (fluorescent intensity %): Aβ1-42 25 μM incubated 2 or 3 days at 37° C., then compound 100 μg/mL, further 2 days, Aβ1-42 alone taken as 100; for fibrillar Aβ breakdown action (result in words): compound added after fibril formation, thioflavin fluorescence
fibrillar Aβ1-42, sequence (P05067 672-713): as above
Experimental: as §1
In the measurement of the fibrillar Aβ breakdown action, the concentration of the Aβ1-42 was 25 μM and the concentration of the compound synthesized in Production Example 4 or Production Example 12 was 100 μg/mL in each case. After incubating the Aβ1-42 for 2 days or 3 days at 37° C., the compound synthesized in Production Example 4 or Production Example 12 was or was not added, and then further incubation performed for 2 days, after which measurement of the fibrillar Aβ breakdown action was performed.
as §2, §3

[2] = Table 8, Aβ (1 μM) + compound 1 μg/mL
[3] = Table 8, compound alone 1 μg/mL, no Aβ
[4] = Homo sapiens, HeLa cells, Aβ1-40 (100 nM), read-out: IC50 (action in inhibiting the lowering of the MTT reduction capacity by Aβ1-40)
[5] = Test 1, Aβ1-42 (500 nM) + compound 1 μg/mL
[6] = Test 1, compound alone 1 μg/mL, no Aβ
[7] = Test 2, Aβ1-42 (1 μM) + compound 3 μg/mL
[8] = Test 2, compound alone 3 μg/mL, no Aβ

CC1(C)CC(C)(c2ccc(O)cc2O)c2ccc(O)cc2O1 (centres unmarked) [Compound A, 4-(7-hydroxy-2,4,4-trimethyl-chroman-4-yl)benzene-1,3-diol, reference compound]
IC50 (HeLa cells; same method as Table 6, HeLa cells, Aβ1-40, read-out: 50% inhibitory concentration (IC50), action in suppressing the lowering of MTT function): 12 µM
Value of fEPSP Slope [%] 0-20 minutes [1, 2]: 159.5 ± 6.6%
Value of fEPSP Slope [%] 20-40 minutes [1, 2]: 142.8 ± 5.4%
Value of fEPSP Slope [%] 40-60 minutes [1, 2]: 137.3 ± 4.5%
Value of fEPSP Slope [%] 0-20 minutes [1, 3]: 168.6 ± 13.0%
Value of fEPSP Slope [%] 20-40 minutes [1, 3]: 146.6 ± 15.9%
Value of fEPSP Slope [%] 40-60 minutes [1, 3]: 149.7 ± 16.1%

CCc1nc(Nc2cccc(O)c2)nc(Nc2cccc(O)c2)n1 [Production Example 1, 6-Ethyl-N,N′-bis(3-hydroxyphenyl)-1,3,5-triazine-2,4-diamine]
IC50 (HeLa cells; [4]): 3.5 µM
Value of fEPSP Slope [%] 0-20 minutes [1, 5]: 150.0 ± 8.4%
Value of fEPSP Slope [%] 20-40 minutes [1, 5]: 149.6 ± 6.9%
Value of fEPSP Slope [%] 40-60 minutes [1, 5]: 151.2 ± 7.5%
Value of fEPSP Slope [%] 0-20 minutes [1, 6]: 155.3 ± 3.4%
Value of fEPSP Slope [%] 20-40 minutes [1, 6]: 156.5 ± 3.9%
Value of fEPSP Slope [%] 40-60 minutes [1, 6]: 155.8 ± 5.0%
effect of compound on its own on LTP (result in words) ([1]; no Aβ): inactive on its own
impairment of the LTP due to Aβ1-42 (result in words) [1]: suppressed

CCc1nc(Nc2cccc(O)c2)cc(Nc2cccc(O)c2)n1 [Production Example 2, 2-Ethyl-N,N′-bis(3-hydroxyphenyl)pyrimidine-4,6-diamine]
IC50 (HeLa cells; [4]): 1.9 µM

Cc1nc(Nc2cccc(O)c2)cc(Nc2cccc(O)c2)n1 [Production Example 4, 2-Methyl-N,N′-bis(3-hydroxyphenyl)pyrimidine-4,6-diamine]
IC50 (HeLa cells; [4]): 6 µM
activity at 100 µg/mL (Aβ1-42): 16.3 ± 5.3%
Aβ fibril-formation (result in words) (Aβ1-42): Aβ fibril-formation was inhibited
fibrillar breakdown action (fluorescent intensity %) (fibrillar Aβ1-42): 30.63 ± 1.26%
fibrillar Aβ breakdown action (result in words) (fibrillar Aβ1-42): there was a fibrillar Aβ breakdown action

Oc1cccc(Nc2cc(Nc3cccc(O)c3)ncn2)c1 [Production Example 5, N,N′-bis(3-hydroxyphenyl)pyrimidine-4,6-diamine]
IC50 (HeLa cells; [4]): 9.6 µM

Oc1cccc(Nc2ccnc(Nc3cccc(O)c3)n2)c1 [Production Example 6, N,N′-bis(3-hydroxyphenyl)pyrimidine-2,4-diamine]
IC50 (HeLa cells; [4]): 6.7 µM

CCCCc1nc(Nc2cccc(O)c2)cc(Nc2cccc(O)c2)n1 [Production Example 8, 2-Butyl-N,N′-bis(3-hydroxyphenyl)pyrimidine-4,6-diamine]
IC50 (HeLa cells; [4]): 5.5 µM

CCCc1nc(Nc2cccc(O)c2)cc(Nc2cccc(O)c2)n1 [Production Example 9, 2-Propyl-N,N′-bis(3-hydroxyphenyl)pyrimidine-4,6-diamine]
IC50 (HeLa cells; [4]): 2.4 µM

CCCc1nc(Nc2cccc(O)c2)nc(Nc2cccc(O)c2)n1 [Production Example 10, N,N′-bis(3-hydroxyphenyl)-6-propyl-1,3,5-triazine-2,4-diamine]
IC50 (HeLa cells; [4]): 4.2 µM

Oc1cccc(Nc2ccc(Nc3cccc(O)c3)nn2)c1 [Production Example 12, N,N′-bis(3-hydroxyphenyl)pyridazine-3,6-diamine]
Value of fEPSP Slope [%] 0-20 minutes [1, 7]: 161.7 ± 2.6%
Value of fEPSP Slope [%] 20-40 minutes [1, 7]: 148.1 ± 3.1%
Value of fEPSP Slope [%] 40-60 minutes [1, 7]: 146.2 ± 4.6%
Value of fEPSP Slope [%] 0-20 minutes [1, 8]: 175.3 ± 7.4%
Value of fEPSP Slope [%] 20-40 minutes [1, 8]: 162.9 ± 9.8%
Value of fEPSP Slope [%] 40-60 minutes [1, 8]: 160.8 ± 10.3%
effect of compound on its own on LTP (result in words) ([1]; no Aβ): inactive on its own
impairment of the LTP due to Aβ1-42 (result in words) [1]: suppressed
activity at 100 µg/mL (Aβ1-42): 1.69 ± 1.32%
Aβ fibril-formation (result in words) (Aβ1-42): Aβ fibril-formation was inhibited
fibrillar breakdown action (fluorescent intensity %) (fibrillar Aβ1-42): 28.49 ± 5.17%
fibrillar Aβ breakdown action (result in words) (fibrillar Aβ1-42): there was a fibrillar Aβ breakdown action

Nc1nc(Nc2cccc(O)c2)cc(Nc2cccc(O)c2)n1 [Production Example 13, 2-Amino-N,N′-bis(3-hydroxyphenyl)pyrimidine-4,6-diamine]
IC50 (HeLa cells; [4]): 5.5 µM

O=[N+]([O-])c1c(Nc2cccc(O)c2)ncnc1Nc1cccc(O)c1 [Production Example 18, N,N′-bis(3-hydroxyphenyl)-5-nitropyrimidine-4,6-diamine]
IC50 (HeLa cells; [4]): 3.8 µM

Cc1nc(Nc2cccc(O)c2)nc(Nc2cccc(O)c2)n1 [Production Example 27, N,N′-bis(3-hydroxyphenyl)-6-methyl-1,3,5-triazine-2,4-diamine]
IC50 (HeLa cells; [4]): 2.4 µM

CC(C)(C)c1nc(Nc2cccc(O)c2)nc(Nc2cccc(O)c2)n1 [Production Example 33, 6-t-Butyl-N,N′-bis(3-hydroxyphenyl)-1,3,5-triazine-2,4-diamine]
IC50 (HeLa cells; [4]): 2.2 µM

CCC(C)c1nc(Nc2cccc(O)c2)nc(Nc2cccc(O)c2)n1 (centres unmarked) [Production Example 34, 6-s-Butyl-N,N′-bis(3-hydroxyphenyl)-1,3,5-triazine-2,4-diamine]
IC50 (HeLa cells; [4]): 4.1 µM
